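Cultured in 96-well plates, cells were exposed to test compound for 48 hours across five concentrations. At the GI50, growth is halved.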 Calls of active or inactive are those of the source. No stated cut-off is given here; in the data, active = GI50 up to about 1.1 µM and inactive = higher. Some results are limits rather than exact numbers.

Holding throughout (experiment): growth of human tumour cells (NCI), 48 h
For assay [1], the system named is UACC-62.
Assay [2] deals with HCT-15.
In assay [3] the test system is SK-MEL-28.
Assay [4] deals with TK-10.
The test system of assay [5] is NCI-H460.
The test system of assay [6] is MOLT-4.
Assay [7] has as its system K562.
In assay [8] the test system is U-251.
The test system of assay [9] is Malme-3M.
Assay [10] relates to UACC-257.
Assay [11] has as its system HCT-116.
Assay [12] concerns PC-3.
Assay [13] has as its system CAKI-1.
Assay [14] concerns NCI-H226.
For assay [15], the system named is SK-MEL-2.
For assay [16], the system named is A498.
Assay [17] deals with SK-OV-3.
Assay [18] deals with SR.
Assay [19] deals with CCRF-CEM.
In assay [20] the test system is SNB-75.

As to `NC(=O)c1csc(-c2ccc(CO)o2)n1`, the GI50 in assay [1] was > 100 µM (inactive); in assay [2], > 100 µM; in [3] it was > 100 µM (inactive); in assay [4], > 100 µM (inactive); in assay [5], > 100 µM (inactive); in assay [6] it was > 100 µM (inactive). For the same compound, the GI50 in assay [7], in [8], in assay [9], in assay [10], in assay [11] and in assay [12] was > 100 µM (inactive) in each case. Moreover, the GI50 in assay [13], in [14], in [15], in assay [16], in assay [17] and in [18] was > 100 µM (inactive) in each case.

Consider `CCOC(=O)c1c(OCC)[nH]c(=O)c(C(c2ccc(F)cc2)c2c(O)c(C(=O)OCC)c(OCC)[nH]c2=O)c1O`, for which the GI50 in [1] is 15.6 µM (inactive); in assay [2] it was 18.4 µM; in assay [3] it was 11.9 µM (inactive); in assay [4], 25.2 µM (inactive); in assay [5] it was 16.4 µM (inactive); in assay [6], 20.1 µM (inactive). Besides, the GI50 in assay [7] was 16.5 µM (inactive); in assay [8], 15.2 µM (inactive); in assay [9], 8.32 µM (inactive); in assay [10] it was 14.8 µM (inactive); in [11], 25.7 µM (inactive); in assay [12], 15.3 µM (inactive). Also, the GI50 is 18.9 µM (inactive) in assay [13]; 9.82 µM (inactive) in assay [14]; 16.6 µM (inactive) in assay [15]; 33.1 µM (inactive) in assay [19]; 11.4 µM (inactive) in [16]; 10.5 µM (inactive) in assay [18].

As to `COc1ccccc1/C=C\C(=O)C1COCN1` (stereo unspecified), the GI50 in assay [1] was 14.5 µM (inactive); in assay [2], 14.7 µM; in assay [3] it was 18 µM (inactive); in [4] it was 21.2 µM (inactive); in [20], 18.6 µM (inactive); in assay [5], 30.9 µM (inactive). Besides, the GI50 in assay [6] is 3.95 µM (inactive); in assay [7], 6.98 µM (inactive); in [8] it was 11.1 µM (inactive); in [9], 19.3 µM (inactive); in assay [10] it was 18.1 µM (inactive); in assay [11] it was 6.97 µM (inactive). For the same compound, the GI50 in [12] is 13.2 µM (inactive); in assay [13], 18.3 µM (inactive); in [14], 18.7 µM (inactive); in assay [15], 21.3 µM (inactive); in assay [19] it was 3.77 µM (inactive); in assay [17] it was 10.2 µM (inactive). In addition, in [18], the GI50 was 1.95 µM (inactive).

With `COc1cc2c(c(OC)c1OC)C(=O)[C@H]1OC(=O)N[C@@H]21`, the GI50 in [1] was > 100 µM (inactive); in assay [2], > 100 µM; in assay [3], > 100 µM (inactive); in assay [4] it was > 100 µM (inactive); in assay [20], > 100 µM (inactive); in assay [6], > 100 µM (inactive). For the same compound, the GI50 in assay [7], in assay [8], in [10], in assay [11], in assay [12] and in assay [13] was > 100 µM (inactive) in each case. In addition, the GI50 in assay [14], in assay [15], in assay [19], in [16], in assay [17] and in [18] was > 100 µM (inactive) in each case.

As for `Cn1c2ccccc2c2c(=S)c3ccccc3ccc21`, the GI50 is > 100 µM (inactive) in assay [1]; > 100 µM in assay [2]; > 100 µM (inactive) in assay [3]; > 100 µM (inactive) in assay [4]; 24.6 µM (inactive) in assay [20]; > 100 µM (inactive) in assay [5]. Besides, the GI50 was 16.2 µM (inactive) in [6]; 43.5 µM (inactive) in assay [7]; 52.8 µM (inactive) in assay [8]; > 100 µM (inactive) in [9]; > 100 µM (inactive) in assay [10]; 59 µM (inactive) in assay [11]. The GI50 in assay [12] was 59.4 µM (inactive); in assay [13], > 100 µM (inactive); in assay [14], 50.5 µM (inactive); in assay [19], 19 µM (inactive); in assay [16], > 100 µM (inactive); in [17], > 100 µM (inactive). Besides, the GI50 in [18] was > 100 µM (inactive).

As for `CCOC(=O)Nn1cnnc1Cc1ccccc1`, the GI50 in [1] was > 100 µM (inactive); in [2] it was > 100 µM; in assay [4], > 100 µM (inactive); in [5] it was > 100 µM (inactive); in assay [6], > 100 µM (inactive); in assay [7], > 100 µM (inactive). The GI50 in assay [8], in [9], in assay [10], in [11], in assay [12] and in [13] was > 100 µM (inactive) each time. Besides, the GI50 in [14], in [15], in [19], in assay [16], in assay [17] and in assay [18] was > 100 µM (inactive) throughout.

As for `O=C(O)CCCN/C(=C1\C(=O)C(=O)N(c2ccccc2)C1=O)c1ccccc1`, the GI50 is > 100 µM (inactive) in assay [1]; > 100 µM in assay [2]; > 100 µM (inactive) in assay [3]; > 100 µM (inactive) in assay [4]; > 100 µM (inactive) in assay [20]; > 100 µM (inactive) in [5]. Moreover, the GI50 in assay [6], in [7], in assay [8], in assay [9], in [10] and in [11] was > 100 µM (inactive) throughout. Further, the GI50 in assay [12], in assay [13], in assay [14], in [15], in assay [19] and in assay [17] was > 100 µM (inactive) each time. For the same compound, the GI50 in assay [18] is 20 µM (inactive).

In the case of `C=C1CN2CC(=C)CN(C1)CS(=O)(=O)N1CC(=C)CN(CC(=C)C1)S(=O)(=O)N1CC(=C)CN(CC(=C)C1)S(=O)(=O)C2`, the GI50 in [1] is 93.3 µM (inactive); in assay [2], > 100 µM; in [3], 20.3 µM (inactive); in [4], 22.1 µM (inactive); in assay [5], > 100 µM (inactive); in assay [6] it was 67.1 µM (inactive). Also, the GI50 is 56.5 µM (inactive) in [7]; 32.7 µM (inactive) in assay [8]; 23.3 µM (inactive) in assay [9]; 23.6 µM (inactive) in assay [10]; 51.3 µM (inactive) in assay [11]; 17.7 µM (inactive) in assay [12]. For the same compound, the GI50 in assay [13] is > 100 µM (inactive); in assay [14], 27.7 µM (inactive); in assay [15] it was 38.4 µM (inactive); in assay [16], 46.5 µM (inactive); in assay [18] it was > 100 µM (inactive).

`NC(=O)c1cc2ccccc2o/c1=N/O`: the GI50 in assay [1] was 35.8 µM (inactive); in [2] it was > 100 µM; in assay [3] it was > 100 µM (inactive); in assay [4], > 100 µM (inactive); in assay [20], > 100 µM (inactive); in [5] it was > 100 µM (inactive). Moreover, the GI50 in assay [6], in [7], in assay [8], in assay [10], in assay [11] and in assay [12] was > 100 µM (inactive) throughout. Also, the GI50 in assay [13] was 27.9 µM (inactive); in assay [14] it was > 100 µM (inactive); in assay [15], > 100 µM (inactive); in [19] it was > 100 µM (inactive); in [17], > 100 µM (inactive); in assay [18] it was > 100 µM (inactive).

For the compound `CCOP(=O)(OCC)/C(C#N)=C/c1cccn1C(C)C`, the GI50 was > 100 µM (inactive) in [1]; > 100 µM in assay [2]; > 100 µM (inactive) in assay [3]; > 100 µM (inactive) in [4]; > 100 µM (inactive) in assay [20]; > 100 µM (inactive) in assay [5]. In addition, the GI50 in assay [6], in [7], in [8], in assay [9], in assay [10] and in [11] was > 100 µM (inactive) each time. The GI50 in assay [12], in [13], in assay [14], in [15], in [16] and in assay [17] was > 100 µM (inactive) in each case. Also, in assay [18], the GI50 was > 100 µM (inactive).

As for `c1ccc(CN2C3C4N(Cc5ccccc5)C2C2N(Cc5ccccc5)C(C(N2Cc2ccccc2)N4Cc2ccccc2)N3Cc2ccccc2)cc1`, the GI50 in assay [1] is > 100 µM (inactive); in [2], > 100 µM; in assay [3], > 100 µM (inactive); in assay [4], > 100 µM (inactive); in assay [20], > 100 µM (inactive); in assay [6] it was > 100 µM (inactive). The GI50 in assay [7], in assay [8], in [10], in assay [11], in [12] and in assay [13] was > 100 µM (inactive) in each case. For the same compound, the GI50 in assay [14] is > 100 µM (inactive); in [15], > 100 µM (inactive); in assay [19], 40.1 µM (inactive); in assay [16] it was > 100 µM (inactive); in assay [17] it was > 100 µM (inactive); in [18] it was > 100 µM (inactive).

Values taken from ChEMBL document CHEMBL1201862, “PubChem BioAssay data set” (2004).
